According to the OPERA property sets (Mansouri et al. 2018):

SMILES	logP
CC(C)N(C=Nc1ccn(C2CCC(CO)O2)c(=O)n1)C(C)C (stereo not given)	0.72
CCN(C=Nc1ccn(C2CC(F)C(CO)O2)c(=O)n1)CC (stereo not given)	0.23
CN(C)C=Nc1ccn(C2CC(F)C(CO)O2)c(=O)n1 (stereo not given)	-0.64
O=c1nc(/N=C/N2CCCCC2)ccn1[C@H]1CC[C@@H](CO)O1	0.06
O=c1nc(N=CN2CCOCC2)ccn1C1CCC(CO)O1 (stereo not given)	-0.97
CCCN(/C=N/c1ccn([C@H]2CC[C@@H](CO)O2)c(=O)n1)CCC	0.95
CCCN(C=Nc1ccn(C2CC(F)C(CO)O2)c(=O)n1)CCC (stereo not given)	1.35
CN(C)C=Nc1ccn(C2CCC(CO)O2)c(=O)n1 (stereo not given)	-0.95
CC(C)N(C=Nc1ccn(C2CC(F)C(CO)O2)c(=O)n1)C(C)C (stereo not given)	1.14

The next lines start with the values.

logP	SMILES
-0.16	O=c1nc(N=CN2CCCC2)ccn1C1CC(F)C(CO)O1 (stereo not given)
-0.89	Nc1ccn([C@H]2C[C@H](F)[C@@H](CO)O2)c(=O)n1
-0.47	O=c1nc(N=CN2CCCC2)ccn1C1CCC(CO)O1 (stereo not given)
0.36	O=c1nc(/N=C/N2CCCCC2)ccn1[C@H]1C[C@H](F)[C@@H](CO)O1
-0.68	O=c1nc(N=CN2CCOCC2)ccn1C1CC(F)C(CO)O1 (stereo not given)
-0.06	CCN(/C=N/c1ccn([C@H]2CC[C@@H](CO)O2)c(=O)n1)CC
